ChEMBL document CHEMBL1136353, “Synthesis of novel fluorescent probes for the molecular chaperone Hsp90” (Bioorg Med Chem Lett, 2003)

Molecular target: Heat shock protein HSP90 (Homo sapiens, UniProt P07900+P08238)
Assay: Binding affinity towards Heat shock protein HSP 90-alpha inhibitor
Format: protein assay

Row | Kds | SMILES
1 | 23.3 nM | CO[C@H]1/C=C\C=C(/C)C(=O)NC2=CC(=O)C(NCCCCCCO/C(S)=N\c3ccc(-c4c5ccc(=O)cc-5oc5cc(O)ccc45)c(C(=O)O)c3)=C(C[C@@H](C)C[C@H](OC)[C@@H](O)[C@@H](C)/C=C(\C)[C@@H]1OC(N)=O)C2=O
2 | 33.8 nM | CO[C@H]1/C=C\C=C(/C)C(=O)NC2=CC(=O)C(NCCNC(=O)CCC3=N/C(=C\c4c(C)cc(C)n4B(F)F)C=C3)=C(C[C@@H](C)C[C@H](OC)[C@@H](O)[C@@H](C)/C=C(\C)[C@@H]1OC(N)=O)C2=O
